In ChEMBL document CHEMBL3232977, “Medicinal chemistry optimization of antiplasmodial imidazopyridazine hits from high throughput screening of a SoftFocus kinase library: part 1” (J Med Chem, 2014):
Converted amounts (≈) assume the structure as drawn.

Assays:
physchem [1] = settings: 0.01 M HCl, pH 2
Plasmodium falciparum [2] = test: microbe, parasite or virus in culture; settings: K1
Plasmodium falciparum [3] = test: microbe, parasite or virus in culture; settings: NF54
[4] = Hepatic extraction ratio in human liver microsomes at 1 uM up to 60 mins by LC-MS analysis; format: ADME; settings: read-out: ERH
Plasmodium berghei [5] = settings: dose 30 mg/kg; route oral
Plasmodium berghei [6] = settings: dose 30 mg/kg; route oral; remark: listed apart in the source
Plasmodium berghei [7] = test: Antimalarial activity against GFP-transfected Plasmodium berghei ANKA infected in mouse assessed as reduction of parasitemia at 40 mg/kg, po qd for 4 days; format: functional
Plasmodium berghei [8] = test: Antimalarial activity against GFP-transfected Plasmodium berghei ANKA infected in mouse assessed as mean survival days at 40 mg/kg, po qd for 4 days; format: functional
[9] = Apparent Cmax in GFP-transfected Plasmodium berghei ANKA infected mouse at 40 mg/kg, po qd for 4 days; format: ADME, organism-based; set-up: dose 40 mg/kg, route oral; settings: in vivo
physchem [10] = settings: buffer, pH 2

Row | SMILES | solubility (physchem [1]) | IC50 (Plasmodium falciparum [2]) | IC50 (Plasmodium falciparum [3]) | further results
1 | CS(=O)(=O)Nc1cccc(-c2ccc3ncc(-c4ccc(S(C)(=O)=O)cc4)n3n2)c1 | > 100 µg/mL | 19 nM | 19 nM | 
2 | CS(=O)(=O)Nc1cccc(-c2ccc3ncc(-c4cncnc4)n3n2)c1 | > 100 µg/mL | 76 nM | 93 nM | hepatic extraction ratio at 1 h, 1 µM [4]: 0.75
3 | N[S+]([O-])c1ccc(-c2ccc3ncc(-c4ccc([S+](N)[O-])cc4)n3n2)cc1 (stereo unspecified) | > 100 µg/mL | > 2330 nM | > 2330 nM | 
4 | CC(C)(C)OC(=O)NCc1cccc(-c2ccc3ncc(-c4ccncc4)n3n2)c1 | > 100 µg/mL | 97 nM | 95 nM | 
5 | CS(=O)(=O)c1ccc(-c2cnc3ccc(-c4ccc(C(F)(F)F)nc4)nn23)cc1 | > 100 µg/mL | 633 nM | 763 nM | 
6 | CS(=O)(=O)c1ccc(-c2ccc3ncc(-c4cccnc4)n3n2)cc1 | > 100 µg/mL | > 2850 nM | > 2850 nM | 
7 | CS(=O)(=O)Nc1cccc(-c2ccc3ncc(-c4ccc([S+](N)[O-])cc4)n3n2)c1 (stereo unspecified) | > 100 µg/mL | 20 nM | 18 nM | hepatic extraction ratio at 1 h, 1 µM [4]: 0.42
8 | O[C@@H](c1cc(C(F)(F)F)nc2c(C(F)(F)F)cccc12)[C@H]1CCCCN1 (relative stereo) [(S,R)-MEFLOQUINE] |  | 8.4 nM | 12 nM | MSD (Plasmodium berghei [5]): 99.9 days; MSD (Plasmodium berghei [6]): 29 days
9 | CS(=O)(=O)c1ccc(-c2cnc3ccc(-c4cccc(C(=O)NS(=O)(=O)C5CC5)c4)nn23)cc1 | > 100 µg/mL | 11 nM | 14 nM | 
10 | CN(C)c1cccc(-c2ccc3ncc(-c4ccc(S(C)(=O)=O)cc4)n3n2)c1 | > 100 µg/mL | 107 nM | 117 nM | 
11 | c1cncc(-c2ccc3ncc(-c4cccnc4)n3n2)c1 | > 100 µg/mL | 1070 nM | 1270 nM | 
12 | CS(=O)(=O)c1ccc(-c2cnc3ccc(-c4cccc(S(N)(=O)=O)c4)nn23)cc1 | > 100 µg/mL | 4.4 nM | 4.4 nM | MSD (Plasmodium berghei [7]): <40 days; MSD (Plasmodium berghei [8]): 4 days; Cmax [9]: 20 nM
13 | C[C@H]1[C@H](OC(=O)CCC(=O)O)O[C@@H]2O[C@@]3(C)CC[C@H]4[C@H](C)CC[C@@H]1[C@@]24OO3 [ARTESUNATE] |  | 3 nM | 4 nM | MSD (Plasmodium berghei [5]): 99 days; MSD (Plasmodium berghei [6]): 10 days
14 | c1cc(-c2cnc3ccc(-c4ccc(N5CCOCC5)cc4)nn23)ccn1 | > 100 µg/mL | > 2800 nM | > 2800 nM | 
15 | Clc1cccc(-c2ccc3ncc(-c4ccncc4)n3n2)c1 | > 100 µg/mL | 183 nM | 202 nM | 
16 | c1cc(-c2ccc3ncc(-c4ccncc4)n3n2)c2ccncc2c1 | > 100 µg/mL | 192 nM | 223 nM | 
17 | CS(=O)(=O)c1ccc(-c2cnc3ccc(-c4cccc(C(=O)N5CCCCC5)c4)nn23)cc1 | > 100 µg/mL | 7.2 nM | 6.5 nM | 
18 | CS(=O)(=O)c1ccc(-c2cnc3ccc(-c4ccc(C(F)(F)F)c(F)c4)nn23)cc1 | > 100 µg/mL | 315 nM | 393 nM | 
19 | O=S(=O)(c1ccc(-c2ccc3ncc(-c4ccncc4)n3n2)cc1)N1CCOCC1 | > 100 µg/mL | 1490 nM | 2240 nM | 

Row | SMILES | solubility (physchem [1]) | IC50 (Plasmodium falciparum [2]) | IC50 (Plasmodium falciparum [3]) | further results
20 | Fc1ccc(-c2ccc3ncc(-c4ccncc4)n3n2)cc1F | > 100 µg/mL | 415 nM | 496 nM | 
21 | FC(F)(F)Oc1ccc(-c2ccc3ncc(-c4ccncc4)n3n2)cc1 | > 100 µg/mL | 980 nM | 1060 nM | 
22 | COc1ccc(-c2ccc3ncc(-c4ccncc4)n3n2)cc1OC | > 100 µg/mL | 14 nM | 16 nM | hepatic extraction ratio at 1 h, 1 µM [4]: 0.86
23 | CS(=O)(=O)c1ccc(-c2cnc3ccc(-c4cccc(S(=O)(=O)NCc5ccccc5)c4)nn23)cc1 | > 100 µg/mL | 3.3 nM | 3.5 nM | 
24 | CN1CCN(S(=O)(=O)c2ccc(-c3ccc4ncc(-c5ccncc5)n4n3)cc2)CC1 | > 100 µg/mL | 1250 nM | 739 nM | 
25 | Fc1cccc(-c2ccc3ncc(-c4ccncc4)n3n2)c1 | > 100 µg/mL | 203 nM | 272 nM | 
26 | CN(C)S(=O)(=O)c1ccc(-c2ccc3ncc(-c4ccc(S(=O)(=O)N(C)C)cc4)n3n2)cc1 | > 100 µg/mL | > 2060 nM | > 2060 nM | 
27 | COc1ccc(-c2cnc3ccc(-c4cccnc4)nn23)cc1OC |  | 23.5 nM | 25.9 nM | hepatic extraction ratio at 1 h, 1 µM [4]: 0.92
28 | CC(C)(C)NC(=O)c1ccc(F)c(-c2ccc3ncc(-c4ccc(S(C)(=O)=O)cc4)n3n2)c1 | > 100 µg/mL | 155 nM | 159 nM | 
29 | CS(=O)(=O)c1ccc(-c2ccc3ncc(-c4ccc(C(F)(F)F)cc4)n3n2)cc1 | > 100 µg/mL | 668 nM | 764 nM | hepatic extraction ratio at 1 h, 1 µM [4]: < 0.28
30 | CC(C)(C)c1cccc(-c2ccc3ncc(-c4ccncc4)n3n2)c1 | > 100 µg/mL | 122 nM | 137 nM | 
31 | CN1CCN(C(=O)c2cccc(-c3ccc4ncc(-c5ccc(S(C)(=O)=O)cc5)n4n3)c2)CC1 | > 100 µg/mL | 5.5 nM | 6.1 nM | solubility (physchem [10]): 50 µg/mL (≈ 105 µM)
32 | Cc1ccc(-c2ccc3ncc(-c4ccc(S(C)(=O)=O)cc4)n3n2)cc1C(F)(F)F | > 100 µg/mL | 26 nM | 32 nM | MSD (Plasmodium berghei [7]): 79 days; MSD (Plasmodium berghei [8]): 7 days
33 | CS(=O)(=O)c1ccc(-c2cnc3ccc(-c4ccc(C(=O)NC5CCCC5)cc4)nn23)cc1 | > 100 µg/mL | 146 nM | 154 nM | 
34 | CS(=O)(=O)c1ccc(-c2cnc3ccc(-c4ccc(F)c(Cl)c4)nn23)cc1 | > 100 µg/mL | 152 nM | 179 nM | 
35 | CS(=O)(=O)c1ccc(-c2cnc3ccc(-c4cccc(S(=O)(=O)NC5CC5)c4)nn23)cc1 | > 100 µg/mL | 0.58 nM | 0.66 nM | 
36 | CS(=O)(=O)Nc1cccc(-c2ccc3ncc(-c4ccncc4)n3n2)c1 | > 100 µg/mL | 15 nM | 16 nM | hepatic extraction ratio at 1 h, 1 µM [4]: 0.82
37 | c1cnc2c(-c3ccc4ncc(-c5ccncc5)n4n3)cccc2c1 | > 100 µg/mL | 1670 nM | 2150 nM | 
38 | CS(=O)(=O)c1ccc(-c2cnc3ccc(-c4cccc(C#N)c4)nn23)cc1 | > 100 µg/mL | 96 nM | 107 nM | 

Row | SMILES | solubility (physchem [1]) | IC50 (Plasmodium falciparum [2]) | IC50 (Plasmodium falciparum [3]) | further results
39 | COc1ccc(-c2ccc3ncc(-c4ccncc4)n3n2)cn1 | > 100 µg/mL | 412 nM | 603 nM | 
40 | CS(=O)(=O)c1ccc(-c2cnc3ccc(-c4cccc(C(=O)NCCO)c4)nn23)cc1 | > 100 µg/mL | 78 nM | 99 nM | solubility (physchem [10]): 50 µg/mL (≈ 115 µM)
41 | FC(F)(F)Oc1cccc(-c2ccc3ncc(-c4ccncc4)n3n2)c1 | > 100 µg/mL | 118 nM | 146 nM | 
42 | CC(C)(C)OC(=O)NCc1ccc(-c2ccc3ncc(-c4ccncc4)n3n2)cc1 | > 100 µg/mL | 1610 nM | 1630 nM | 
43 | CS(=O)(=O)c1cccc(-c2ccc3ncc(-c4ccncc4)n3n2)c1 | > 100 µg/mL | 28 nM | 46 nM | 
44 | CS(=O)(=O)c1ccc(-c2ccc3ncc(-c4ccncc4)n3n2)cc1 | > 100 µg/mL | > 2850 nM | > 2850 nM | 
45 | CS(=O)(=O)c1ccc(-c2cnc3ccc(-c4cc(C(=O)NC5CCCCC5)ccc4F)nn23)cc1 | > 100 µg/mL | > 2030 nM | > 2030 nM | 
46 | CC(C)(C)c1ccc(-c2ccc3ncc(-c4ccncc4)n3n2)cc1 | > 100 µg/mL | 1420 nM | 1880 nM | 
47 | O=C(c1ccc(-c2ccc3ncc(-c4ccc(C(F)(F)F)cc4)n3n2)cc1)N1CCOCC1 | > 100 µg/mL | 732 nM | 763 nM | hepatic extraction ratio at 1 h, 1 µM [4]: 0.59
48 | CS(=O)(=O)c1ccc(-c2cnc3ccc(-c4ccc(C(F)(F)F)cc4)nn23)cc1 | > 100 µg/mL | 134 nM | 189 nM | 
49 | C1=C(c2ccc3ncc(-c4ccncc4)n3n2)Cc2nonc2C1 | > 100 µg/mL | > 3180 nM | > 3180 nM | 
50 | CS(=O)(=O)c1ccc(-c2ccc3ncc(-c4ccc(S(C)(=O)=O)cc4)n3n2)cc1 | > 100 µg/mL | 753 nM | 706 nM | 
51 | Fc1ccc(-c2ccc3ncc(-c4ccncc4)n3n2)cc1 | > 100 µg/mL | 138 nM | 186 nM | 
52 | c1cc(-c2ccc3ncc(-c4ccncc4)n3n2)cc(N2CCOCC2)c1 | > 100 µg/mL | 246 nM | 283 nM | 
53 | NCc1ccc(-c2ccc3ncc(-c4ccncc4)n3n2)cc1 | > 100 µg/mL | 491 nM | 335 nM | 
54 | CS(=O)(=O)c1ccc(-c2cnc3ccc(-c4cccc(C(N)=O)c4)nn23)cc1 | > 100 µg/mL | 99 nM | 102 nM | 
55 | NCc1cccc(-c2ccc3ncc(-c4ccncc4)n3n2)c1 | > 100 µg/mL | 588 nM | 289 nM | 
56 | FC(F)(F)c1ccc(-c2ccc3ncc(-c4ccncc4)n3n2)cn1 | > 100 µg/mL | 873 nM | 964 nM | 
57 | CS(=O)(=O)c1ccc(-c2cnc3ccc(-c4cccc(C(F)(F)F)c4)nn23)cc1 | > 100 µg/mL | 55 nM | 79 nM | 
